Legend:
[1] = system: regulatory T cells derived from peripheral blood mononuclear cells; test: Culturing of regulatory T cells from peripheral blood mononuclear cells with myricetin or superoxide dismutase, FACS analysis; format: cell-based, human; conditions: for CD4+, CD25+, CD127− (%): flow cytometry; for Total number of cells: start 2.0×10^7 cells, control 20.8
Method: 30 mL to 60 mL of human peripheral blood was collected using a 10 mL heparinized vacuum blood collection tube (BD Vacutainer TM). Then, 15 mL of a solution of Ficoll-Paque Plus (endotoxin tested, density 1.077 g/mL, GE Healthcare, USA) was put into a 50 mL lymphocyte separation tube (Leucosep, Greiner Bio-One, Swiss), and the solution was allowed to precipitate down to a glass membrane in the tube by centrifugation at 2000 rpm. The collected blood was transferred to a separation tube and centrifuged at 2500 rpm to separate the erythrocytes and granulocyte layer at the bottom, and the mononuclear cell layer and platelets at the top, thereby separating the blood components. After centrifugation, the plasma in the separated upper layer was inactivated in a water bath at 56° C. for 30 minutes. After centrifugation, the separated lymphocyte layer was collected using a sterilized pipette and collected in a 15 mL tube. After the 15 mL tube with the collected lymphocytes were centrifuged, the supernatant was removed. Cells were washed by adding 10 mL of a buffer solution (PBS) to the lymphocytes from which the supernatant had been removed and suspending the cells. The number of cells was measured from some of the suspension using a hemocytometer, and only lymphocytes were collected by centrifuging again. In this case, the number of harvested lymphocytes was measured to be 20×10^6 cells in total, and the harvested lymphocytes were cultured according to Example 1 below. After the lymphocytes prepared in Experimental Example 1 were taken, the lymphocytes were cultured in a T-flask (SPL Life Sciences) containing a culture solution and 0.2 to 2 mL of plasma in a 5% CO2 incubator at 37° C. for 4 to 14 days. Furthermore, in order to induce a reaction with an activation receptor present on the cell surface of regulatory T cells, 0.001 to 0.03 of one or more antibodies selected from the group consisting of anti-CD2, anti-CD3, anti-CD7, anti-CD8, anti-CD28, anti-CD30L, anti-CD40, anti-CD70, anti-CD80, anti-CD83 and anti-CD86; one or more cytokines selected from the group consisting of interleukin-2, interleukin-4, interleukin-7, interleukin-12, interleukin-15, interleukin-34 and TGF-β; 0 to 250 μM of myricetin; and 0 to 50 μM of superoxide dismutase were administered. That is, lymphocytes measured to be a total number of 2.0×10^7 cells were added to 5 to 100 mL of KBM502 medium including the above-described plasma, antibodies, cytokines, myricetin and superoxide dismutase, and cultured in a CO2 incubator for 4 to 14 days. To confirm the differentiation of regulatory T cells, staining was performed with an anti-human antibody or mouse isotype antibody (BD-Pharmingen San Jose, USA) under a condition of CD4+, CD25+ and CD127−, which are surface proteins of regulatory T cells, measured by flow cytometry, and then analyzed using BD Accuri C6 Plus.

[2] = system: regulatory T cells derived from peripheral blood mononuclear cells after removal of CD8+ cells; test: Culturing of regulatory T cells with myricetin and superoxide dismutase only or in combination after removal of CD8, FACS analysis; format: cell-based, human; conditions: for Total number of cells: control 18.2
Method: After the lymphocytes prepared in Experimental Example 1 were taken, the lymphocytes were cultured in a T-flask (SPL Life Sciences) containing a culture solution and 0.2 to 2 mL of plasma in a 5% CO2 incubator at 37° C. for 4 to 14 days. Furthermore, in order to induce a reaction with an activation receptor present on the cell surface of regulatory T cells, 0.001 to 0.03 of one or more antibodies selected from the group consisting of anti-CD2, anti-CD3, anti-CD7, anti-CD8, anti-CD28, anti-CD30L, anti-CD40, anti-CD70, anti-CD80, anti-CD83 and anti-CD86; one or more cytokines selected from the group consisting of interleukin-2, interleukin-4, interleukin-7, interleukin-12, interleukin-15, interleukin-34 and TGF-β; 0 to 250 μM of myricetin; and 0 to 50 μM of superoxide dismutase were administered. That is, lymphocytes measured to be a total number of 2.0×10^7 cells were added to 5 to 100 mL of KBM502 medium including the above-described plasma, antibodies, cytokines, myricetin and superoxide dismutase, and cultured in a CO2 incubator for 4 to 14 days. After peripheral blood mononuclear cells were separated, the cells were suspended in MACS buffer from Miltenyi Biotec and reacted with Human CD8 MicroBeads, and then CD8+ cells were removed using an LD column in a QuadroMACS Separator. Then, the cells were cultured using the same culturing method as in Example 1, and treated with myricetin and superoxide dismutase by selecting the treatment concentration having the highest regulatory T cell distribution in Example 1. To confirm the differentiation of regulatory T cells, staining was performed with an anti-human antibody or mouse isotype antibody (BD-Pharmingen San Jose, USA) under a condition of CD4+, CD25+ and CD127−, which are surface proteins of regulatory T cells, measured by flow cytometry, and then analyzed using BD Accuri C6 Plus.

[3] = Day 0, after removal of CD8, flow cytometry
[4] = Day 7 of culture, after removal of CD8
[5] = Day 7 of culture, after removal of CD8, control 92.3

| Molecule | CD4+, CD25+, CD127− (%) ([1]; Day 0, before culture) | CD4+, CD25+, CD127− (%) ([1]; Day 7 of culture, control 18.0) | Total number of cells ([1]; Day 7 of culture) | CD4+, CD25+, CD127− (%) [2, 3] [%] | Total number of cells [2, 4] | CD4+, CD25+, CD127− (%) [2, 5] [%] |
| --- | --- | --- | --- | --- | --- | --- |
| O=c1c(O)c(-c2cc(O)c(O)c(O)c2)oc2cc(O)cc(O)c12 [M1, myricetin] | 2.1 | 22.4 | 26.8 ×10^7 cells | – | – | – |
| O=c1c(O)c(-c2cc(O)c(O)c(O)c2)oc2cc(O)cc(O)c12 [M2, myricetin] | 2.1 | 22.9 | 26.7 ×10^7 cells | – | – | – |
| O=c1c(O)c(-c2cc(O)c(O)c(O)c2)oc2cc(O)cc(O)c12 [M3, myricetin] | 2.1 | 24.7 | 28.6 ×10^7 cells | 0.4 | 20.8 ×10^7 cells | 97.6 |
| O=c1c(O)c(-c2cc(O)c(O)c(O)c2)oc2cc(O)cc(O)c12 [M4, myricetin] | 2.1 | 23.3 | 25.6 ×10^7 cells | – | – | – |
| superoxide dismutase [S1] | 1.2 | 37.4 | 22.5 ×10^7 cells | 0.7 | 21.5 ×10^7 cells | 97.6 |
| superoxide dismutase [S2] | 1.2 | 37.1 | 25.2 ×10^7 cells | – | – | – |
| superoxide dismutase [S3] | 1.2 | 36.0 | 24.4 ×10^7 cells | – | – | – |
